Laboratory results as given in US20220144881A1, “COMPOUNDS AND METHODS FOR MANUFACTURE OF HYPOMETHYLATING AGENTS” (priority 2020, published 2022).

Experiment: Effect of relative humidity on polymorphic forms of Compound 10 (monitored by XRPD)
Type: physicochemical
Settings: for Stability at 0% RH: relevant condition for storage and further processing; for Form conversion at 33% RH: Form A only after at least 2 weeks; for Description of polymorph (stability / conditions of formation): RH = relative humidity; for Form conversion at 97% RH and above: RH of 97% and above
Experimental: Studies were performed to identify the different polymorphic forms of Compound 10 drug substance. Seven polymorphs of Compound 10 in total have been identified (TABLE 1).
Compound 10 is hygroscopic and is therefore packaged and stored at conditions that inhibit moisture uptake. Experiments were performed to understand the effect of relative humidity on various polymorphic forms of Compound 10. Form A and Form B were subjected to increasing relative humidity (TABLE 2) and monitored using XRPD to evaluate polymorphism.
Forms A, B, C, and D were characterized by X-ray powder diffraction (XRPD). XRPD diffractograms were collected with a PANalytical X'Pert PRO MPD® diffractometer using an incident beam of Cu radiation produced using an Optix long, fine-focus source. An elliptically graded multilayer mirror was used to focus Cu Kα X-rays through the specimen and onto the detector. Prior to the analysis, a silicon specimen (NIST SRM 640e) was analyzed to verify the observed position of the Si 111 peak is consistent with the NIST-certified position. For the determination of solid forms under the environmental conditions surveyed in EXAMPLE 6, samples of Compound 10 were stored within environmental chambers maintained at specific relative humidity conditions. A specimen of the sample was sandwiched between 3-μm-thick Etnom® films within these environmental chambers. Once prepared, the test article was removed from the environmental chamber and analyzed in transmission geometry without undue delay. A beam-stop, short antiscatter extension, and antiscatter knife edge were used to minimize the background generated by air. Soller slits for the incident and diffracted beams were used to minimize broadening from axial divergence. Diffraction patterns were collected using a scanning position-sensitive detector (X'Celerator) located 240 mm from the specimen and Data Collector software v. 2.2b.

## Nc1ncn([C@H]2C[C@H](OP(=O)([O-])OC[C@H]3O[C@@H](n4cnc5c(=O)[nH]c(N)nc54)C[C@@H]3O)[C@@H](CO)O2)c(=O)n1.[Na+] [Compound 10, guadecitabine sodium]
  Hygroscopicity: hygroscopic

## Nc1ncn([C@H]2C[C@H](OP(=O)([O-])OC[C@H]3O[C@@H](n4cnc5c(=O)[nH]c(N)nc54)C[C@@H]3O)[C@@H](CO)O2)c(=O)n1.[Na+] [Form A, guadecitabine sodium]
  Stability at 0% RH: stable
  Description of polymorph (stability / conditions of formation): Stable form at 0% RH
33% RH
  Duration of stability at 33% RH: at least 2 weeks
  Form conversion at 33% RH: converted to Form K

## Nc1ncn([C@H]2C[C@H](OP(=O)([O-])OC[C@H]3O[C@@H](n4cnc5c(=O)[nH]c(N)nc54)C[C@@H]3O)[C@@H](CO)O2)c(=O)n1.[Na+] [Form B, guadecitabine sodium]
  Stability at 0% RH: stable
  Description of polymorph (stability / conditions of formation): Stable form at 0% RH
  Form conversion at 97% RH and above: deliquescence to afford a mesophase
33% RH
  Form conversion at 33% RH: converted to Form H
97% relative humidity, XRPD
  Polymorph observed at 97% RH: Mesophase
RH increased beyond 33%
  Form obtained on increasing RH: formation of Form D

## Nc1ncn([C@H]2C[C@H](OP(=O)([O-])OC[C@H]3O[C@@H](n4cnc5c(=O)[nH]c(N)nc54)C[C@@H]3O)[C@@H](CO)O2)c(=O)n1.[Na+] [Form C, guadecitabine sodium]
  Description of polymorph (stability / conditions of formation): Formed from ethanolic slurry of Form A

## Nc1ncn([C@H]2CC(OP(=O)([O-])OC[C@H]3O[C@@H](n4cnc5c(=O)[nH]c(N)nc54)CC3O)[C@@H](CO)O2)c(=O)n1.[Na+] (some centres unmarked) [Form D, guadecitabine sodium]
  Description of polymorph (stability / conditions of formation): Formed from Form B at 58% RH

## Nc1ncn([C@H]2C[C@H](OP(=O)([O-])OC[C@H]3O[C@@H](n4cnc5c(=O)[nH]c(N)nc54)C[C@@H]3O)[C@@H](CO)O2)c(=O)n1.[Na+] [Form H, guadecitabine sodium]
  Description of polymorph (stability / conditions of formation): Formed from Form B at 33% RH

## Nc1ncn([C@H]2C[C@H](OP(=O)([O-])OC[C@H]3O[C@@H](n4cnc5c(=O)[nH]c(N)nc54)C[C@@H]3O)[C@@H](CO)O2)c(=O)n1.[Na+] [Form K, guadecitabine sodium]
  Description of polymorph (stability / conditions of formation): Formed from Form A at 58% RH
  Form conversion at 97% RH and above: converted to Form L

## Nc1ncn([C@H]2CC(OP(=O)([O-])OC[C@H]3O[C@@H](n4cnc5c(=O)[nH]c(N)nc54)CC3O)[C@@H](CO)O2)c(=O)n1.[Na+] (some centres unmarked) [Form L, guadecitabine sodium]
  Description of polymorph (stability / conditions of formation): Formed from Form A at 97% RH
